The values below come from US20170119851A1, “METHODS OF TREATING ANOREXIA” (NOVARTIS AG, priority 2014, published 2017).

No end group written: not given here.

Series [1] deals with T1, MC4R (Homo sapiens, UniProt P32245).
T1 construct: expressed in transfected cells; host or cells: HEK293
The conditions noted are these: Jackson et al., Biochemistry 41, 7565-7572; cited from earlier work.

Series [2] deals with T2, MC3R (Homo sapiens, UniProt P41968).
T2 construct: expressed in transfected cells; host or cells: HEK293
T2 sequence (P41968 whole entry, species assumed): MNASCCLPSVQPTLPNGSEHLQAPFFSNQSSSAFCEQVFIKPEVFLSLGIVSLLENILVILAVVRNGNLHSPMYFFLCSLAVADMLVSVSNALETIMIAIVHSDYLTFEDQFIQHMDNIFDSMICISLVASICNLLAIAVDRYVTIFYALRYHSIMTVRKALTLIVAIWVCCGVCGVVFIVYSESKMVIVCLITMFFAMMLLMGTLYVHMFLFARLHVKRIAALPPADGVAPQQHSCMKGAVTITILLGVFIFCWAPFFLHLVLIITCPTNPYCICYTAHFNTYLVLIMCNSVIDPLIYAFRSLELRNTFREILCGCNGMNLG
The conditions noted are these: Jackson et al., Biochemistry 41, 7565-7572; cited from earlier work.

Series [3] relates to MC3R and MC4R. The conditions noted are these: Jackson et al., Biochemistry 41, 7565-7572; cited from earlier work.
Series [4] can be described thus: in vivo. Particulars: male, Sprague-Dawley, rat, plasma, iv, 10 nanomoles per rat.
Procedure: C) In Vivo Assay Description:
10 nanomoles of conjugate was dissolved in 300 L of PBS (Phosphate buffered saline) to form Dosing solution. Dosing solution (300 M) was administered intravenously to male Sprague-Dawley rats via lateral tail vein (corresponding to a dose 10 nanomoles per rat). Blood was collected via tail snip at prescribed times after dosing and immediately placed on wet ice. These samples were centrifuged at 4 C, with supernatant plasma transferred to a fresh tube for analysis.
For assay, intermediates were diluted to a top standard concentration of 2500 pg/mL and then diluted 2-fold serially to 16 points including a zero dose standard in ELISA sample diluent with bovine serum albumin (BSA).
Plasma samples were diluted 10-fold and then 5-fold serially out to 31,250-fold in ELISA sample diluent with BSA.
Plates were aspirated and blocked with a milk-based blocker at 90 uL/well for 2 hours at RT. All further incubations were carried out at 30 uL/well. Plates were aspirated again and samples and standards were added to the wells for 2 hours at RT. […] The plates were washed again and a HRP-labeled streptavidin reagent was added to the wells for 30 minutes at RT. Plates were washed a final time and a chemiluminescent substrate was added to all wells and plates were read immediately on a Spectramx M5 for light output.
Raw data was organized and analyzed for basic PK parameters.
Series [5] has as its target T1, MC4R. Briefly: HTRF cAMP assay, HEK293/MC4R stable cell line. Format: cell-based. Particulars: HEK293/MC4R cells, titration against NDP-aMSH. Here is the method:
A) HTRF cAMP Assay Protocol:
• Flash spindown the 384 well plate at 1200 RPM • Incubated the cells for 15 minutes at an ambient temperature • Add 10 μL of the following reagents into each well based on your sample alignment
• Flash spindown the 384 well plate at 1200 RPM • Incubate the cells for an additional 30 minutes at an ambient temperature • *This incubation time is not so strict. +/−5 min should be OK according to assay development data. • Add 10 μL of cAMP-d2 (diluted 1:4 in the lysis buffer provided in the kit) • *Important!! For Negative control, not cAMP-d2, but just the lysis buffer • Add 10 μL of anti-cAMP Cryptate (diluted 1:4 in the lysis buffer provided in the kit) • Flash spindown at 1200 RPM. • Incubate the assay plate for 45-60 min at an ambient temperature. • Transfer […] of each sample to a tissue culture treated white polystyrene 384-well assay plate (Corning, Cat. No. 3572) • Flash spindown at 1200 RPM. • Measure the fluorescence with a Molecular device M5 or M5e with the following setting.

For series [6], the target named is T2, MC3R. The series can be described thus: MC3 cAMP assay, HEK293/MC3R stable cell line (antagonist protocol). Format: cell-based. Particulars: HEK293/MC3R cells, antagonist protocol against NDP-α-MSH EC80.
Procedure: Cells: HEK293/MC3R stable cell line Complete medium: DMEM/F12 1:1 (Gibco, Cat. No. 11039) • 10% FBS (Heat inactivated, Gibco, Cat. No. 10082)× • 200 μg/mL Geneticin (Gibco, Cat. No. 10131) • 2 mM L-glutamine (GIBCO, Cat No. 25030) Flask: 150 cm^2 tissue culture treated flask (Corning, Cat. No. 430825).
• I. Aspirate conditioned medium • II. Wash with 2.5 mL of DPBS (Gibco, Cat. No. 14190) • III. Add 2 mL of 0.25% Trypsin-EDTA (Gibco, Cat. No. 25200-056) • IV. Leave the flask for few minutes in incubator, tap the flask a few time to detach cells. • V. Add 10 mL of the complete medium to stop Trypsin-EDTA treatment and mix it well by pipetting softly a few times to re-suspend clumping cells • VI. Transfer 1.5 ml of cells into a new 150 cm flask containing 20 ml of complete media • VII. Transfer the remaining suspension into a 50 mL centrifuge tube • VIII. Spin down at 1200 rpm for 4 mins. Aspirate supernatant • IX. Add 6 mL of the assay buffer to the tube and re-suspend the cells by softly pipetting • X. Transfer 0.5 mL of the suspension into a sample vial for Vi-cell and add another 0.5 ml of PBS. • XI. Count cell number by using a Vi-cell *Record cell density and viability every time • i. Plate cells at 4K/well in 10 ul/well of assay buffer containing IBMX. • ii. Leave the plate in incubator for ˜30 mins before assay is started on suspension cells. […]
Series [7] in a line: in vivo. Particulars: male, C57BL, mouse, plasma, 57 ug.
Procedure: Male C57BL mice were housed one per cage with normal chow diet and housed in normal light cycle (light on 6:00-18:00).
10 min prior to the treatment, tail blood samples were taken and plasma (10 μl) was obtained. […] After being dosed, the mice remained in the isoflurane chamber for 2 min before placed back in their home cages. […] Tail blood samples were taken at 2, 5, 10, 30 min and 1, 2, 4 and 24 h post dose. Plasma samples were aliquoted and stored at −80° C. until analysis.
Series [8] deals with lean Sprague Dawley (SD) rats. Briefly: Food intake after intranasal AgRP in lean rats. Format: in vivo. Here is the method: The purpose of the following study was to determine if intranasal—(IN) administered AgRP would stimulate food intake in lean Sprague Dawley (SD) rats.
8-12 week-old male SD rats were housed one per cage with a standard chow diet and normal light cycle.
One and two days prior to dosing, 24 h food intake and body weight were measured. Animals were grouped based on body weight and food intake. […] Animals were actively sniffing when compound was administered. After dosing, rats were returned to their home cages. A pre-weighed amount of food was given to the animals after dosing. Food weight was recorded at 4 and 24 hours post dose.
All data were analyzed using an unpaired t-test comparing saline and AgRP. A p value of <0.05 or lower was taken to be statistically significant. All data were analyzed and plotted using GraphPad Prism6 software (San Diego, Calif.).

Series [9] concerns C57BL mice. The series can be described thus: Food intake after subcutaneous (SC) AgRP in mice. Format: in vivo. The conditions noted are these: 57 μg AgRP. Here is the method:
One day prior to treatment, 4-h food intake was measured and animals grouped to match group means of food intake. On the day of the study, animals were dosed via SC injection between 10:30 to 11:00 am. Pre-weighed food was provided to the mice prior to the dark cycle (11:00 am). At 4 and 24 h post dose food intake was measured.
All data were analyzed using an unpaired t-test comparing PBS and AgRP in saline. A p value of <0.05 or lower was taken to be statistically significant. All data were analyzed and plotted using GraphPad Prism6 software (San Diego, Calif.).

For series [10], the system named is C57BL mice. The series can be described thus: Food intake after intranasal (IN) AgRP in mice. It is filed as in vivo. Particulars: 57 μg AgRP in saline. Here is the method: One day prior to treatment, 4-h food intake was measured and animals grouped to match group means of food intake. On the day of the study, food was removed at 9:00 am. […] After dosing, the mice remained in the isoflurane chamber in a supine position for 3 min before being returned to their cages. A pre-weighed amount of food was given to the animals before the dark cycle. Food weight was recorded at 4 and 24 hours post dose.
All data were analyzed using an unpaired t-test comparing saline and AgRP in saline. A p value of <0.05 or lower was taken to be statistically significant. All data were analyzed and plotted using GraphPad Prism6 software (San Diego, Calif.).

T1 sequence (P32245 whole entry, species assumed): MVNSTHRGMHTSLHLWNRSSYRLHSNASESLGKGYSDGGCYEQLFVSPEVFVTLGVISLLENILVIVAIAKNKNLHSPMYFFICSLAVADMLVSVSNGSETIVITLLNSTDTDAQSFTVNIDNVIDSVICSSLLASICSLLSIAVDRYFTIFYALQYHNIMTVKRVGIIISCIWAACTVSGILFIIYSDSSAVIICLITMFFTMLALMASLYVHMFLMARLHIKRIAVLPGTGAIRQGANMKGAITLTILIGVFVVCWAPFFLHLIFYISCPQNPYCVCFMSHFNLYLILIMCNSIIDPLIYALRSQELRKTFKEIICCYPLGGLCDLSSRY

Consider “AgRP(87-132): shorter biologically active fragment of AgRP described in Jackson et al.”, for which, in series [1], the “MC4R affinity compared with AgRP(83-132)” value is listed as “approximately the same”. For the same molecule, the “MC3R affinity compared with AgRP(83-132)” value in series [2] was “approximately the same”. In series [3], the “inverse agonism compared with AgRP(83-132)” value is recorded as “equivalent inverse agonism”.
`CCCCCCCCCCCC(CCCCCCCCCCC(=O)O)(C(=O)O)C(=O)NCCOCCOCCOCCOCCOCCOCCOCCOCCOCCOCCOCCOCCOCCOCCOCCOCCOCCOCCOCCOCCOCCOCCOCCOCCC(=O)N[C@@H](CO)C(=O)N[C@@H](CO)C(=O)N[C@@H](CCCNC(=N)N)C(=O)N[C@@H](CCCNC(=N)N)C(=O)N[C@H]1CSSC[C@@H]2NC(=O)[C@@H]3CSSC[C@@H]4NC(=O)[C@H](Cc5ccc(O)cc5)NC(=O)[C@@H]5CSSC[C@H](NC(=O)[C@H](Cc6ccc(O)cc6)NC(=O)[C@H](CSSC[C@H](NC(=O)[C@H](CO)NC(=O)[C@H](CCC(=O)O)NC(=O)[C@H](Cc6c[nH]cn6)NC(=O)[C@H](CC(C)C)NC(=O)[C@H](CCCNC(=N)N)NC(=O)[C@H](C(C)C)NC1=O)C(=O)N[C@@H](CC(C)C)C(=O)NCC(=O)N[C@@H](CCC(N)=O)C(=O)N[C@@H](CCC(N)=O)C(=O)N[C@@H](C(C)C)C(=O)N1CCC[C@H]1C(=O)N3)NC(=O)[C@H]([C@@H](C)O)NC(=O)[C@H](C)NC(=O)[C@H](CSSC[C@@H](C(=O)N[C@@H](CO)C(=O)N[C@@H](CCCNC(=N)N)C(=O)N[C@H](C(=O)O)[C@@H](C)O)NC(=O)[C@@H]1CCCN1C(=O)[C@H](CC(N)=O)NC(=O)[C@H](CCSC)NC(=O)[C@H](C)NC(=O)[C@H]([C@@H](C)O)NC(=O)CNC(=O)[C@H](CC(C)C)NC(=O)[C@H](CCCCN)NC(=O)[C@H](CCCNC(=N)N)NC4=O)NC(=O)[C@@H]1CCCN1C(=O)[C@H](CC(=O)O)NC2=O)C(=O)N[C@@H](CCCNC(=N)N)C(=O)N[C@@H](Cc1ccccc1)C(=O)N[C@@H](Cc1ccccc1)C(=O)N[C@@H](CC(N)=O)C(=O)N[C@@H](C)C(=O)N[C@@H](Cc1ccccc1)C(=O)N5` (some centres unmarked) [Example 5A] had a half-life in series [4] of 20 h. Further, the EC50 is 18 nM in series [5] and 7 nM in series [6].
As to `CSCC[C@@H]1NC(=O)[C@H](C)NC(=O)[C@H]([C@@H](C)O)NC(=O)CNC(=O)[C@H](CC(C)C)NC(=O)[C@H](CCCCN)NC(=O)[C@H](CCCNC(=N)N)NC(=O)[C@@H]2CSSC[C@@H]3NC(=O)[C@@H]4CCCN4C(=O)[C@H](C(C)C)NC(=O)[C@H](CCC(N)=O)NC(=O)[C@H](CCC(N)=O)NC(=O)CNC(=O)[C@H](CC(C)C)NC(=O)[C@@H]4CSSC[C@H](NC(=O)[C@H]([C@@H](C)O)NC(=O)[C@H](C)NC(=O)[C@H](CSSC[C@@H](C(=O)N[C@@H](CO)C(=O)N[C@@H](CCCNC(=N)N)C(=O)N[C@H](C(=O)O)[C@@H](C)O)NC(=O)[C@@H]5CCCN5C(=O)[C@H](CC(N)=O)NC1=O)NC(=O)[C@@H]1CCCN1C(=O)[C@H](CC(=O)O)NC(=O)[C@H](CSSC[C@H](NC(=O)[C@H](CCCNC(=N)N)NC(=O)[C@H](CCCNC(=N)N)NC(=O)[C@H](CO)NC(=O)[C@@H](N)CO)C(=O)N[C@@H](C(C)C)C(=O)N[C@@H](CCCNC(=N)N)C(=O)N[C@@H](CC(C)C)C(=O)N[C@@H](Cc1c[nH]cn1)C(=O)N[C@@H](CCC(=O)O)C(=O)N[C@@H](CO)C(=O)N4)NC3=O)C(=O)N[C@@H](Cc1ccc(O)cc1)C(=O)N[C@H]1CSSC[C@H](NC(=O)[C@H](Cc3ccccc3)NC(=O)[C@H](C)NC(=O)[C@H](CC(N)=O)NC(=O)[C@H](Cc3ccccc3)NC(=O)[C@H](Cc3ccccc3)NC(=O)[C@H](CCCNC(=N)N)NC1=O)C(=O)N[C@@H](Cc1ccc(O)cc1)C(=O)N2` [AgRP, Agouti-Related Peptide], the figures for the Cmax in series [7] (other: intranasal (IN)) and in series [7] (sc) were 97.6 ng/mL and 2810 ng/mL, respectively. Besides, the Tmax was 1 h in series [7] (other: intranasal (IN)) and 0.5 h in series [7] (sc). In addition, the “food intake vs saline (unpaired t-test)” value is “significant increase” in series [8] (57 μg AgRP, 24 h post dose); “significant effect” in [8] (171 μg AgRP, 4 h post dose); “significant increase” in [8] (171 μg AgRP, 24 h post dose); “significant effect” in [10] (4 h post dose); “significant effect” in series [10] (24 h post dose). The “food intake vs PBS (unpaired t-test)” value in series [9] (4 h post dose) and in series [9] (24 h post dose) was “did not resulted in a significant effect” throughout.
Turning to “AgRP (87-120): shorter biologically active fragment of AgRP described in Jackson et al. (CVRLHESCLGQQVPCCDPCATCYCRFFNAFCYCR; also: disulfide pairing of this fragment not given here, 9 Cys (C105 partner C129 absent))”, the “MC4R affinity compared with AgRP(83-132)” value in series [1] is “approximately the same”. The “MC3R affinity compared with AgRP(83-132)” value in [2] is listed as “approximately the same”. For the same molecule, the “inverse agonism compared with AgRP(83-132)” value in [3] is recorded as “equivalent inverse agonism”.
With `CCCCCCCCCCCC(CCCCCCCCCCC(=O)O)(C(=O)O)C(=O)NCCOCCOCCOCCOCCOCCOCCOCCOCCOCCOCCOCCOCCOCCOCCOCCOCCOCCOCCOCCOCCOCCOCCOCCOCCC(=O)NCCCC[C@@H]1NC(=O)[C@H](CCCNC(=N)N)NC(=O)[C@@H]2CSSC[C@@H]3NC(=O)[C@@H]4CCCN4C(=O)[C@H](C(C)C)NC(=O)[C@H](CCC(N)=O)NC(=O)[C@H](CCC(N)=O)NC(=O)CNC(=O)[C@H](CC(C)C)NC(=O)[C@@H]4CSSC[C@H](NC(=O)[C@H]([C@@H](C)O)NC(=O)[C@H](C)NC(=O)[C@H](CSSC[C@@H](C(=O)N[C@@H](CO)C(=O)N[C@@H](CCCNC(=N)N)C(=O)N[C@H](C(=O)O)[C@@H](C)O)NC(=O)[C@@H]5CCCN5C(=O)[C@H](CC(N)=O)NC(=O)[C@H](CCSC)NC(=O)[C@H](C)NC(=O)[C@H]([C@@H](C)O)NC(=O)CNC(=O)[C@H](CC(C)C)NC1=O)NC(=O)[C@@H]1CCCN1C(=O)[C@H](CC(=O)O)NC(=O)[C@H](CSSC[C@H](NC(=O)[C@H](CCCNC(=N)N)NC(=O)[C@H](CCCNC(=N)N)NC(=O)[C@H](CO)NC(=O)[C@H](CO)NC(=O)CCOCCOCCOCCOCCOCCOCCOCCOCCOCCOCCOCCOCCOCCOCCOCCOCCOCCOCCOCCOCCOCCOCCOCCOCCNC(=O)C(CCCCCCCCCCC)(CCCCCCCCCCC(=O)O)C(=O)O)C(=O)N[C@@H](C(C)C)C(=O)N[C@@H](CCCNC(=N)N)C(=O)N[C@@H](CC(C)C)C(=O)N[C@@H](Cc1c[nH]cn1)C(=O)N[C@@H](CCC(=O)O)C(=O)N[C@@H](CO)C(=O)N4)NC3=O)C(=O)N[C@@H](Cc1ccc(O)cc1)C(=O)N[C@H]1CSSC[C@H](NC(=O)[C@H](Cc3ccccc3)NC(=O)[C@H](C)NC(=O)[C@H](CC(N)=O)NC(=O)[C@H](Cc3ccccc3)NC(=O)[C@H](Cc3ccccc3)NC(=O)[C@H](CCCNC(=N)N)NC1=O)C(=O)N[C@@H](Cc1ccc(O)cc1)C(=O)N2` (some centres unmarked) [Example 5B], the half-life in series [4] is 52 h. Besides, the values for the EC50 in series [5] and in series [6] were 167 nM and 65 nM, respectively.
